From US20090232838A1, “Ligands of melanocortin receptors” (priority 2005, published 2009)
Like-named read-outs stand apart in the source and are kept apart here. Where a SMILES comes first, the peptide text is derived from it. Bridges are numbered along the chain shown (N, C = ends). [ ]: non-standard residue; d: D form. 1Nal = N[C@@H](Cc1cccc2ccccc12)C(=O)O; 2Nal = N[C@@H](Cc1ccc2ccccc2c1)C(=O)O; d2Nal = N[C@H](Cc1ccc2ccccc2c1)C(=O)O

How the values were obtained:
Format in all cases: cell-based
hMC5-R = molecular target: T1, hMC5-R (Homo sapiens, UniProt P33032); assay: cyclic AMP bioassay, hMC5-R
T1 construct: expressed in transfected cells; host or cells: CHO-K1

hMC3-R = molecular target: T2, hMC3-R (Homo sapiens, UniProt P41968); assay: cyclic AMP bioassay, hMC3-R
T2 construct: expressed in transfected cells; host or cells: CHO-K1
Protocol: Intracellular cyclic AMP (cAMP) levels were determined by an electrochemiluminescence (ECL) assay (Meso Scale Discovery®, Gaithersburg, Md.; referred to hereinafter as MSD). […] Transgenic CHO-K1 cells stably expressing hMC receptor subtypes 1, 3, 4 or 5 were dispensed at a density of approximately 7,000 cells/well in 384-well Multi-Arrays plates (MSD) containing integrated carbon electrodes and coated with anti-CAMP antibody. Increasing concentrations of the test compounds were added and the cells were incubated for approximately 40 minutes at approximately 37° C. […] At the end of the second incubation period read buffer (Tris-buffered solution containing an ECL co-reactant and Triton X-100 at ph 7.8) was added and the cAMP levels in the cell lysates were immediately determined by ECL detection with a Sector Imager 6000 Reader® (MSD). Data were analyzed using a computer-assisted non-linear regression analysis (XL fit; IDBS) and reported as either an EC50 value or a Kb value.
The Kb value reflects the potency of an antagonist and is determined by Schild analysis. In brief, concentration-response curves of an agonist are carried out in the presence of increasing concentrations of an antagonist. […] It is calculated by extrapolating the line on a Schild plot to zero on the y-axis.

hMC4-R = molecular target: T3, hMC4-R (Homo sapiens, UniProt P32245); assay: cyclic AMP bioassay, hMC4-R
T3 construct: expressed in transfected cells; host or cells: CHO-K1

hMC1-R = molecular target: T4, hMC1-R (Homo sapiens, UniProt Q01726); assay: cyclic AMP bioassay, hMC1-R
T4 construct: expressed in transfected cells; host or cells: CHO-K1
T4 sequence (Q01726 whole entry): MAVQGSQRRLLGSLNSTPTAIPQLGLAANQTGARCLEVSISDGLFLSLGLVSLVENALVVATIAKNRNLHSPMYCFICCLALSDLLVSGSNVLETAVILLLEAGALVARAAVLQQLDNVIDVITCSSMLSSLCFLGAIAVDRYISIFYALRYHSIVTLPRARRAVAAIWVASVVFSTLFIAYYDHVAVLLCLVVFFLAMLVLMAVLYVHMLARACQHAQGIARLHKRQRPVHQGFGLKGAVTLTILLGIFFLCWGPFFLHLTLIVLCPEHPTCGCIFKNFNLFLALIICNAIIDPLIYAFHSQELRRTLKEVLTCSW

T2 sequence (P41968 whole entry): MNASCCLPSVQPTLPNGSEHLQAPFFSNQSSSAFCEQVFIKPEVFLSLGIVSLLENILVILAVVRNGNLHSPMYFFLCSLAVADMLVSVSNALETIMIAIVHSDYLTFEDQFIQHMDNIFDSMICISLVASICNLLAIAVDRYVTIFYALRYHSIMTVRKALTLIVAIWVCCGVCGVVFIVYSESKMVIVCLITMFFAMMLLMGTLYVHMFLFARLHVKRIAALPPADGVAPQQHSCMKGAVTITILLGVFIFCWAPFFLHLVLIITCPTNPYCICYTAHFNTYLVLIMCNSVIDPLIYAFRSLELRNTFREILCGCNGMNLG
T3 sequence (P32245 whole entry): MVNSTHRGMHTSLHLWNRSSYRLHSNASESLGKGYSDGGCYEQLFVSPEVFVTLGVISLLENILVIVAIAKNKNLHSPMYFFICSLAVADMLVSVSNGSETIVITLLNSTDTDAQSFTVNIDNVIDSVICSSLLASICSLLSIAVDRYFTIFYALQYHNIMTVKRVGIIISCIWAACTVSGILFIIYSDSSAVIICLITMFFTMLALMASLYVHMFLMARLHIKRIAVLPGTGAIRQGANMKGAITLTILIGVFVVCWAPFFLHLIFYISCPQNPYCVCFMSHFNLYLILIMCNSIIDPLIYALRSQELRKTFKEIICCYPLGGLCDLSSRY
T1 sequence (P33032 whole entry): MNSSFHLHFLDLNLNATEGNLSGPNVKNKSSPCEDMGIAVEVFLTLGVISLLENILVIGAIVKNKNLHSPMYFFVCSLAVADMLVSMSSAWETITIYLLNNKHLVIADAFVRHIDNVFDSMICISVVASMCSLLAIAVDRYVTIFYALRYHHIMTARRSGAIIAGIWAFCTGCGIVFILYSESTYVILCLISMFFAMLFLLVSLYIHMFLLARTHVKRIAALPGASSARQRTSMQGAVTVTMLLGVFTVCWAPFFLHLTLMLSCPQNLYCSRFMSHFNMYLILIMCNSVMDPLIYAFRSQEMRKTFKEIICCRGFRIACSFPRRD

| SMILES | EC50 (hMC5-R) | EC50 (hMC3-R) | EC50 (hMC4-R) | EC50 (hMC1-R) | Kb (hMC3-R) | Kb (hMC4-R) | EC50 (hMC5-R; Table 3A, cAMP in CHO-K1 cells, agonist, read-out: EC50 hMC5-R) | Kb (hMC3-R; Table 3A, cAMP in CHO-K1 cells, antagonist potency by Schild analysis, read-out: Kb hMC3-R) | Kb (hMC4-R; Table 3A, cAMP in CHO-K1 cells, antagonist potency by Schild analysis, read-out: Kb hMC4-R) | EC50 (hMC1-R; Table 3A, cAMP in CHO-K1 cells, agonist, read-out: EC50 hMC1-R) |
| --- | --- | --- | --- | --- | --- | --- | --- | --- | --- | --- |
| CCCC[C@H](NC(C)=O)C(=O)N[C@H]1CSSC[C@@H](C(=O)NCCC(=O)N[C@@H](CCCNC(=N)N)C(=O)N[C@@H](CCCNC(=N)N)C(=O)N[C@@H](CCCNC(=N)N)C(=O)N[C@@H](CCCNC(=N)N)C(=O)N[C@@H](CCCNC(=N)N)C(=O)N[C@@H](CCC(N)=O)C(=O)N[C@@H](CCCNC(=N)N)C(=O)N[C@@H](CCCNC(=N)N)C(=O)N[C@@H](CCCNC(=N)N)C(N)=O)NC(=O)[C@H](Cc2c[nH]c3ccccc23)NC(=O)[C@H](CCCNC(=N)N)NC(=O)[C@@H](Cc2ccccc2)NC(=O)[C@H](Cc2c[nH]cn2)NC(=O)[C@@H](C)NC1=O | 1570 nM | 9.37 nM | 1.25 nM | 7.15 nM |  |  |  |  |  |  |
| CCCC[C@H](NC(C)=O)C(=O)N[C@H]1CSSC[C@@H](C(=O)NCCOCCOCC(=O)NCCOCCOCC(=O)N[C@@H](Cc2ccc(O)cc2)C(=O)NCC(=O)N[C@@H](CCCNC(=N)N)C(=O)N[C@@H](CCCCN)C(=O)N[C@@H](CCCCN)C(=O)N[C@@H](CCCNC(=N)N)C(=O)N[C@@H](CCCNC(=N)N)C(=O)N[C@@H](CCC(N)=O)C(=O)N[C@@H](CCCNC(=N)N)C(=O)N[C@@H](CCCNC(=N)N)C(=O)N[C@@H](CCCNC(=N)N)C(N)=O)NC(=O)[C@H](Cc2c[nH]c3ccccc23)NC(=O)[C@H](CCCNC(=N)N)NC(=O)[C@@H](Cc2ccccc2)NC(=O)[C@H](Cc2c[nH]cn2)NC(=O)[C@@H](C)NC1=O | 147 nM | 4.56 nM | 0.634 nM | 4.7 nM |  |  |  |  |  |  |
| CCCC[C@H](NC(C)=O)C(=O)N[C@H]1CSSC[C@@H](C(=O)NCCC(=O)N[C@@H](Cc2ccc(O)cc2)C(=O)NCC(=O)N[C@@H](CCCNC(=N)N)C(=O)N[C@@H](CCCCN)C(=O)N[C@@H](CCCCN)C(=O)N[C@@H](CCCNC(=N)N)C(=O)N[C@@H](CCC(N)=O)C(=O)N[C@@H](CCCNC(=N)N)C(=O)N[C@@H](CCCNC(=N)N)C(=O)N[C@@H](CCCNC(=N)N)C(=O)N[C@@H](CCCNC(=N)N)C(N)=O)NC(=O)[C@H](Cc2c[nH]c3ccccc23)NC(=O)[C@H](CCCNC(=N)N)NC(=O)[C@@H](Cc2ccccc2)NC(=O)[C@H](Cc2c[nH]cn2)NC(=O)[C@@H](C)NC1=O | 2890 nM | 7.73 nM | 1.02 nM | 5.9 nM |  |  |  |  |  |  |
| CC(=O)N[C@H]1CSSC[C@@H](C(=O)N2CCC[C@H]2C(=O)N2CCC[C@H]2C(=O)N[C@@H](CCCCN)C(=O)N[C@@H](CC(=O)O)C(=O)NCCC(=O)N[C@@H](CCCNC(=N)N)C(=O)N[C@@H](CCCNC(=N)N)C(=O)N[C@@H](CCCNC(=N)N)C(=O)N[C@@H](CCCNC(=N)N)C(=O)N[C@@H](CCCNC(=N)N)C(=O)N[C@@H](CCC(N)=O)C(=O)N[C@@H](CCCNC(=N)N)C(=O)N[C@@H](CCCNC(=N)N)C(=O)N[C@@H](CCCNC(=N)N)C(N)=O)NC(=O)[C@H](C)NC(=O)[C@H](Cc2cccc3ccccc23)NC(=O)[C@H](CCCNC(=N)N)NC(=O)[C@@H](Cc2ccc3ccccc3c2)NC(=O)[C@H](Cc2c[nH]cn2)NC(=O)[C@H](CCC(=O)O)NC1=O | 56.1 nM |  |  | 36 nM | 46.5 nM | 11.4 nM |  |  |  |  |
| CC(=O)N[C@H]1CSSC[C@@H](C(=O)N2CCC[C@H]2C(=O)N2CCC[C@H]2C(=O)N[C@@H](CCCCN)C(=O)N[C@@H](CC(=O)O)C(=O)NCCC(=O)N[C@@H](Cc2ccc(O)cc2)C(=O)NCC(=O)N[C@@H](CCCNC(=N)N)C(=O)N[C@@H](CCCCN)C(=O)N[C@@H](CCCCN)C(=O)N[C@@H](CCCNC(=N)N)C(=O)N[C@@H](CCCNC(=N)N)C(=O)N[C@@H](CCCNC(=N)N)C(=O)N[C@@H](CCC(N)=O)C(=O)N[C@@H](CCCNC(=N)N)C(=O)N[C@@H](CCCNC(=N)N)C(N)=O)NC(=O)[C@H](C)NC(=O)[C@H](Cc2c[nH]c3ccccc23)NC(=O)[C@H](CCCNC(=N)N)NC(=O)[C@@H](Cc2ccc3ccccc3c2)NC(=O)[C@H](Cc2c[nH]cn2)NC(=O)[C@H](CCC(=O)O)NC1=O |  |  |  |  |  |  | 44.2 nM | 20.8 nM | 7.31 nM | 16.4 nM |
| CC(=O)N[C@H]1CSSC[C@@H](C(=O)N2CCC[C@H]2C(=O)N2CCC[C@H]2C(=O)N[C@@H](CCCCN)C(=O)N[C@@H](CC(=O)O)C(=O)NCCC(=O)NCC(=O)N[C@@H](CCCNC(=N)N)C(=O)N[C@@H](CCCCN)C(=O)N[C@@H](CCCNC(=N)N)C(=O)N[C@@H](CCCNC(=N)N)C(=O)N[C@@H](CCCNC(=N)N)C(=O)N[C@@H](CCC(N)=O)C(=O)N[C@@H](CCCNC(=N)N)C(=O)N[C@@H](CCCNC(=N)N)C(=O)N[C@@H](CCCNC(=N)N)C(N)=O)NC(=O)[C@H](C)NC(=O)[C@H](Cc2cccc3ccccc23)NC(=O)[C@H](CCCNC(=N)N)NC(=O)[C@@H](Cc2ccc3ccccc3c2)NC(=O)[C@H](Cc2c[nH]cn2)NC(=O)[C@H](CCC(=O)O)NC1=O | 149 nM |  |  | 45.5 nM | 181 nM | 6.35 nM |  |  |  |  |
| CC(=O)N[C@H]1CSSC[C@@H](C(=O)N2CCC[C@H]2C(=O)N2CCC[C@H]2C(=O)N[C@@H](CCCCN)C(=O)N[C@@H](CC(=O)O)C(N)=O)NC(=O)[C@H](C)NC(=O)[C@H](Cc2ccc3ccccc3c2)NC(=O)[C@H](CCCNC(=N)N)NC(=O)[C@@H](Cc2ccc3ccccc3c2)NC(=O)[C@H](Cc2c[nH]cn2)NC(=O)[C@H](CCC(=O)O)NC1=O [Ac-c(Cys-Glu-His-D-2-Nal-Arg-2-Nal-Ala-Cys)-Pro-Pro-Lys-Asp-NH2] (Ac-CEH[d2Nal]R[2Nal]ACPPKD-NH2; disulfide 1-8) | 66.9 nM |  |  | 33.6 nM | 140 nM | 12.2 nM |  |  |  |  |
| CC(=O)N[C@H]1CSSC[C@@H](C(=O)N2CCC[C@H]2C(=O)N2CCC[C@H]2C(=O)N[C@@H](CCCNC(=N)N)C(=O)N[C@@H](CC(=O)O)C(=O)NCCC(=O)N[C@@H](CCCNC(=N)N)C(=O)N[C@@H](CCCNC(=N)N)C(=O)N[C@@H](CCCNC(=N)N)C(=O)N[C@@H](CCCNC(=N)N)C(=O)N[C@@H](CCCNC(=N)N)C(=O)N[C@@H](CCC(N)=O)C(=O)N[C@@H](CCCNC(=N)N)C(=O)N[C@@H](CCCNC(=N)N)C(=O)N[C@@H](CCCNC(=N)N)C(N)=O)NC(=O)[C@H](C)NC(=O)[C@H](Cc2ccc3ccccc3c2)NC(=O)[C@H](CCCNC(=N)N)NC(=O)[C@@H](Cc2ccc3ccccc3c2)NC(=O)[C@H](Cc2c[nH]cn2)NC(=O)[C@H](CCC(=O)O)NC1=O | 501 nM |  |  | 39.7 nM | 30.9 nM | 6.66 nM |  |  |  |  |
| CCCC[C@H](NC(C)=O)C(=O)N[C@H]1CSSC[C@@H](C(=O)NCCC(=O)NCC(=O)N[C@@H](CCCNC(=N)N)C(=O)N[C@@H](CCCNC(=N)N)C(=O)N[C@@H](CCCNC(=N)N)C(=O)N[C@@H](CCCNC(=N)N)C(=O)N[C@@H](CCCNC(=N)N)C(=O)N[C@@H](CCC(N)=O)C(=O)N[C@@H](CCCNC(=N)N)C(=O)N[C@@H](CCCNC(=N)N)C(=O)N[C@@H](CCCNC(=N)N)C(N)=O)NC(=O)[C@H](Cc2c[nH]c3ccccc23)NC(=O)[C@H](CCCNC(=N)N)NC(=O)[C@@H](Cc2ccccc2)NC(=O)[C@H](Cc2c[nH]cn2)NC(=O)[C@@H](C)NC1=O | 2010 nM | 7.32 nM | 0.964 nM | 0.481 nM |  |  |  |  |  |  |
| CC(=O)N[C@H]1CSSC[C@@H](C(=O)N2CCC[C@H]2C(=O)N2CCC[C@H]2C(=O)N[C@@H](CCCCN)C(=O)N[C@@H](CC(=O)O)C(=O)NCCC(=O)N[C@@H](CCCNC(=N)N)C(=O)N[C@@H](CCCCN)C(=O)N[C@@H](CCCNC(=N)N)C(=O)N[C@@H](CCCNC(=N)N)C(=O)N[C@@H](CCCNC(=N)N)C(=O)N[C@@H](CCC(N)=O)C(=O)N[C@@H](CCCNC(=N)N)C(=O)N[C@@H](CCCNC(=N)N)C(=O)N[C@@H](CCCNC(=N)N)C(N)=O)NC(=O)[C@H](C)NC(=O)[C@H](Cc2cccc3ccccc23)NC(=O)[C@H](CCCNC(=N)N)NC(=O)[C@@H](Cc2ccc3ccccc3c2)NC(=O)[C@H](Cc2c[nH]cn2)NC(=O)[C@H](CCC(=O)O)NC1=O | 1720 nM |  |  | 33.1 nM | 65.1 nM | 15.3 nM |  |  |  |  |
| CC(=O)N[C@H]1CSSC[C@@H](C(=O)N2CCC[C@H]2C(=O)N2CCC[C@H]2C(=O)N[C@@H](CCCCN)C(=O)N[C@@H](CC(=O)O)C(N)=O)NC(=O)[C@H](C)NC(=O)[C@H](Cc2cccc3ccccc23)NC(=O)[C@H](CCCNC(=N)N)NC(=O)[C@@H](Cc2ccc3ccccc3c2)NC(=O)[C@H](Cc2c[nH]cn2)NC(=O)[C@H](CCC(=O)O)NC1=O [Ac-c(Cys-Glu-His-D-2-Nal-Arg-1-Nal-Ala-Cys)-Pro-Pro-Lys-Asp-NH2] (Ac-CEH[d2Nal]R[1Nal]ACPPKD-NH2; disulfide 1-8) | 104 nM |  |  | 269 nM | 105 nM | 5.92 nM |  |  |  |  |
| CC(=O)N[C@H]1CSSC[C@@H](C(=O)N2CCC[C@H]2C(=O)N2CCC[C@H]2C(=O)N[C@@H](CCCCN)C(=O)N[C@@H](CC(=O)O)C(=O)NCCC(=O)NCC(=O)N[C@@H](CCCNC(=N)N)C(=O)N[C@@H](CCCNC(=N)N)C(=O)N[C@@H](CCCCN)C(=O)N[C@@H](CCCNC(=N)N)C(=O)N[C@@H](CCCNC(=N)N)C(=O)N[C@@H](CCC(N)=O)C(=O)N[C@@H](CCCNC(=N)N)C(=O)N[C@@H](CCCNC(=N)N)C(=O)N[C@@H](CCCNC(=N)N)C(N)=O)NC(=O)[C@H](C)NC(=O)[C@H](Cc2ccc3ccccc3c2)NC(=O)[C@H](CCCNC(=N)N)NC(=O)[C@@H](Cc2ccc3ccccc3c2)NC(=O)[C@H](Cc2c[nH]cn2)NC(=O)[C@H](CCC(=O)O)NC1=O | 162 nM |  |  | 45.4 nM | 12.7 nM | 12.7 nM |  |  |  |  |
